Experimental data from publication PMC11259170, “Small-molecule probe for IBD risk variant GPR65 I231L alters cytokine signaling networks through positive allosteric modulation” (Science Advances, 2024).
Read-outs that look alike come from different tables or passages of the source.

Legend:
hGPR65 = biological target: T1, hGPR65 (Homo sapiens, UniProt Q8IYL9); test: cAMP detection in HeLa expression cell line, hGPR65; assay type: cell-based; details: for EC50 / Emax: NA = no activity; for Emax: HeLa, relative to 100uM forskolin (100%) and DMSO (0%), read-out: hGPR Max Activity %
T1 construct: expressed in transfected cells; host or cells: HeLa (ATCC CCL-2), lentiviral transduction, pLX317
Protocol: (§1) HeLa stable expression cell lines were produced by lentiviral transduction. Briefly, lentiviral plasmids for each GPCR with a C-terminal V5 Tag ([…]) were made in a pLX317 backbone using competent Escherichia coli (New England Biolabs, C3050H). Lenti-X 293 T (Takara, 632810) cells were transfected with the lentiviral plasmids to produce virus. Low-passage HeLa cells (American Type Culture Collection, CCL-2) were then transduced with lentivirus. After 48 hours, HeLa cells were cultured under selection with puromycin (3 μg/ml) and allowed to recover and expand before storing stocks in liquid nitrogen.
(§2) cAMP was measured in cells using the Lance Ultra cAMP Kit. HeLa cells were cultured under puromycin (3 μg/ml) selection. One day before the experiment, cells were seeded in T75 flasks and allowed to adhere overnight. On the day of the experiment, cells were washed twice with Dulbecco’s PBS and lifted using prewarmed 1× versene solution (Gibco, 15040066). Cells were counted in HBSS (Gibco, 14025092) and then resuspended in stimulation buffer prepared according to the manufacturer’s instructions and adjusted to pH 7.2 using 1 M sodium hydroxide. Cells were added to the plate at a density of 1500 cells per well in white opaque 384-well assay ready microplates containing 100 nl of 10 mM compound in DMSO. Cells were stimulated for 30 min at RT, then lysed and incubated with detection reagents for 1 hour in the dark at RT. Plates were read on BMG Labtech PHERAstar FSX (excitation, 337 nm; emission, 620 and 665 nm). Data analysis was performed using GraphPad Prism.

[1] = system: GFP-expressing HeLa cells; test: cAMP detection in HeLa expression cell line, GFP control; assay type: cell-based, human; details: Homo sapiens, HeLa, NA = no activity; for Emax: relative to 100uM forskolin (100%) and DMSO (0%), read-out: GFP Max Activity %
Protocol: as §1, §2

mGPR65 = biological target: T2, mGPR65 (Mus musculus, UniProt Q61038); test: cAMP detection in HeLa expression cell line, mGPR65; assay type: cell-based; details: for EC50 / Emax: NA = no activity; for Emax: HeLa, relative to 100uM forskolin (100%) and DMSO (0%), read-out: mGPR Max Activity %
T2 construct: expressed in transfected cells; host or cells: HeLa (ATCC CCL-2), lentiviral transduction, pLX317
Protocol: as §1, §2

[2] = 1st hGPR column pair, read-out: hGPR EC50
[3] = 2nd hGPR column pair, read-out: hGPR EC50
[4] = 1st mGPR column pair, read-out: mGPR EC50
[5] = 2nd mGPR column pair, read-out: mGPR EC50

T2 sequence (Q61038 whole entry): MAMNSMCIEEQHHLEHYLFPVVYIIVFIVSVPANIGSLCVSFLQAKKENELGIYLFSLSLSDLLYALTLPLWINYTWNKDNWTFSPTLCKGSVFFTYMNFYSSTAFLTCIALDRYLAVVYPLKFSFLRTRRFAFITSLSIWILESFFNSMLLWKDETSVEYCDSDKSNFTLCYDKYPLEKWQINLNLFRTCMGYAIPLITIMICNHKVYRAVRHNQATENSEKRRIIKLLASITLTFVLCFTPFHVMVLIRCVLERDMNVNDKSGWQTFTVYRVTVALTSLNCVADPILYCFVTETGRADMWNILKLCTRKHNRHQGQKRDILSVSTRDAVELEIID
T1 sequence (Q8IYL9 whole entry): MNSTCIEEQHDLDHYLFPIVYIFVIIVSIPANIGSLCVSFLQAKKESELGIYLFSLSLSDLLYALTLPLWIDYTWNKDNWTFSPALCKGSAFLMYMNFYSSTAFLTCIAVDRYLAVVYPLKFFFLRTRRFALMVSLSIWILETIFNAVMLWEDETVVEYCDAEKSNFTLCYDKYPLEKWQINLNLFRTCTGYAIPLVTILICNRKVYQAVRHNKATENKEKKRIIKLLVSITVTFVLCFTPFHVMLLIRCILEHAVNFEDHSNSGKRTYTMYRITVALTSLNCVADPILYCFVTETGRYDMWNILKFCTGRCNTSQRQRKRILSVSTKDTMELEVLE

Compound	EC50 (hGPR65; [2])	EC50 (hGPR65; [3])	Emax (hGPR65; 1st hGPR column pair)	Emax (hGPR65; 2nd hGPR column pair)	potency and total cAMP production relative to BRD2813 (hGPR65; receptor not given)	EC50 ([1]; 1st GFP column pair)	Emax ([1]; 1st GFP column pair)	EC50 ([1]; 2nd GFP column pair)	Emax ([1]; 2nd GFP column pair)	EC50 (mGPR65; [4])	EC50 (mGPR65; [5])	Emax (mGPR65; 2nd mGPR column pair)	Emax (mGPR65)	EC50 (hGPR65; hGPR EC50 (uM))	EC50 (hGPR65; hGPR EC50)	cAMP production relative to BRD2813, hGPR65 (hGPR65; pH 7.2)	EC50 (mGPR65; mGPR EC50 (uM), 2nd mGPR column pair)	EC50 (mGPR65; mGPR EC50 (uM))	cAMP production relative to BRD2813, mGPR65 (mGPR65; pH 7.2)
Cc1ccc(NC(=O)c2cnn3c(O)cc(-c4ccc(-c5ccccc5)cc4)nc23)cc1 [BRD8716]	0.171 µM	0.284 µM	79.2%	72.4%	improved potency but had little effect on total cAMP production	7.3 µM	1.95%	5.6 µM	1.51%	0.368 µM	0.528 µM	33.1%	40.2%	–	–	–	–	–	–
COCc1ccc(-c2cc(O)n3ncc(C(=O)Nc4ccccc4)c3n2)cc1 [BRD9876]	–	–	81.6%	79.5%	–	3.62 µM	1.96%	25.7 µM	3.97%	–	–	34.4%	45.3%	8.06 µM	12 µM	detrimental to potency	4.76 µM	4.06 µM	decreased potency
Cc1ccc(NC(=O)c2cnn3c(O)cc(-c4ccc(C(F)(F)F)cc4)nc23)cc1 [BRD5668]	0.114 µM	0.587 µM	77%	70.8%	–	–	–	0.183 µM	1.82%	3.49 µM	6.28 µM	-22.2%	-22.7%	–	–	–	–	–	–
Cc1ccc(NC(=O)c2cnn3c(O)cc(-c4cccc(C)c4)nc23)cc1 [BRD1420]	3.71 µM	–	22.9%	–	–	0.317 µM	2.36%	–	–	0.471 µM	–	–	2.06%	–	–	–	–	–	–
Cc1ncc(NC(=O)c2cnn3c(O)cc(-c4ccc(COC(C)C)cc4)nc23)cn1 [BRD5072]	8.18 µM	6.93 µM	59.1%	48.2%	–	6.88 µM	3.5%	0.376 µM	1.42%	4.79 µM	5.04 µM	49%	51.1%	–	–	–	–	–	–
COc1cccc(-c2cc(O)n3ncc(C(=O)Nc4ccc(C)cc4)c3n2)c1 [BRD6202]	1.3 µM	1.75 µM	72.3%	73.6%	–	3.17 µM	1.48%	0.195 µM	3.9%	0.378 µM	0.451 µM	58.8%	63.3%	–	–	–	–	–	–
Cc1ccc(NC(=O)c2cnn3c(O)cc(-c4ccc(C(=O)N(C)C)cc4)nc23)cc1 [BRD5084]	2 µM	1.23 µM	39.1%	40.2%	–	11.5 µM	5.15%	33.6 µM	7.64%	2.98 µM	1.63 µM	31.2%	32.1%	–	–	–	–	–	–
CC(C)OCc1ccc(-c2cc(O)n3ncc(C(=O)Nc4cccnc4)c3n2)cc1 [BRD5077]	5.55 µM	8.26 µM	57.8%	70.1%	–	–	–	1.62 µM	3.65%	2.51 µM	2.72 µM	62.4%	70%	–	–	–	–	–	–
CCCc1cc(-c2cc(O)n3ncc(C(=O)Nc4ccc(C)cc4)c3n2)no1 [BRD8472]	1.25 µM	0.79 µM	67.7%	51.3%	–	24.9 µM	2.75%	–	–	0.103 µM	0.397 µM	55.4%	59.4%	–	–	–	–	–	–
